Laboratory results published in patent publication US10669252B2, “Benzazepine derivative, preparation method, pharmaceutical composition and use thereof” (SHANGHAI DE NOVO PHARMATECH CO., LTD., priority 2016, dated 2020).

Biological target: T1, TLR8 (Homo sapiens, UniProt Q9NR97)
T1 construct: host or cells: HEK293 (HEK-BLUE-hTLR8)
T1 sequence (Q9NR97 27-1041): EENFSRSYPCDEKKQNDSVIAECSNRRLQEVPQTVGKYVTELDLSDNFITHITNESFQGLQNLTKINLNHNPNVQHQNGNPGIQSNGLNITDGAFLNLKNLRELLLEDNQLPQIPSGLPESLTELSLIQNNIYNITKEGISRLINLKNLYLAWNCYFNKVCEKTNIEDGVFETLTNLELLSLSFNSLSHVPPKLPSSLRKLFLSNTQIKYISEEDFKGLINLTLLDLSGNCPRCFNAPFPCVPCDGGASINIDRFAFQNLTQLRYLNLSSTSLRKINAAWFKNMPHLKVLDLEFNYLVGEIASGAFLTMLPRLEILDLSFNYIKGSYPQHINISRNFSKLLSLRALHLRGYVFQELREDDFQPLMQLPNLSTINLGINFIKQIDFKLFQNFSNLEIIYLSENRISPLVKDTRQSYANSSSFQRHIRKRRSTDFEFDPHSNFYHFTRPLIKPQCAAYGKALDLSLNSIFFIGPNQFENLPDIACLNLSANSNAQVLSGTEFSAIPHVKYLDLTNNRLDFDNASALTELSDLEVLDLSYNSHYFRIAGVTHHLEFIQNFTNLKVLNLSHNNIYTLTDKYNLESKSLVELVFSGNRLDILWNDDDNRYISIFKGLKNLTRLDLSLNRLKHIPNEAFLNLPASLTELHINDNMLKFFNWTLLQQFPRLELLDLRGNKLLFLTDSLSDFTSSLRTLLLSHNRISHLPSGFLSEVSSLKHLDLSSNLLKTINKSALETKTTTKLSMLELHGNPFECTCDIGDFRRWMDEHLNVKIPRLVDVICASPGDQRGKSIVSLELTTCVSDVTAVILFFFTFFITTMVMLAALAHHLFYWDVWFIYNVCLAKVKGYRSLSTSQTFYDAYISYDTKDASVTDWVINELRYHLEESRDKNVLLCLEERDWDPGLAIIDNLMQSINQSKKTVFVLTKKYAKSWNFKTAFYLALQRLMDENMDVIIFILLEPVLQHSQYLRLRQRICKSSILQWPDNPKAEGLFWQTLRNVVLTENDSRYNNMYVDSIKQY
Experiment: TLR8 cell based assay (HEK-BLUE-hTLR8, SEAP reporter linked to NF-κB activation)
Settings: HEK-BLUE-hTLR8 cells, 24 h treatment, SEAP/QUANTI-Blue readout
Experimental: In this assay, the bioactivity of compound of formula Iw as measured using a cell based assay. The assay was performed in human embryonic kidney cells (HEK293) expressing TLR8 or other TLR family members such as TLR4, TLR7 and TLR9 (for selectivity screens). The activity of specific TLR agonists was assessed using the secretory embryonic alkaline phosphatase (SEAP) reporter gene that is linked to NF-κB activation in response to TLR stimulation. The SEAP activity was measured using the Quanti-Blue substrate (InvivoGen) after TLR agonist treatment.
The detailed experimental method is as follow:
HEK-BLUE-hTLR8 cell line was purchased from InvivoGen. The cells were cultured in Dulbecco's Modified Eagle's Media containing 4.5 g/L […] (Sigma-Aldrich) and 10% FBS. The cells were cultured at 37° C., 95% humidity and 5% CO2.
Test concentrations of the compounds ranged from 0.5 nM to 15 μM with 10 points. A known TLR8 agonist was added as positive control and 1 μl of DMSO was added as negative control.
The cells were prepared as follows: The cells were removed from the incubator and growth medium was discarded. The cells were gently rinsed with pre-warmed 10 ml PBS for a T-150 flask. 12 ml pre-warmed growth medium was added, and the cells were detached by tapping the flask. Cell clumps were dissociated by gently pipetting up and down. The cells were counted. Single cell suspension was prepared at 200,000 cells per ml in growth medium and 200 μl of the cell suspension (40,000 cells per well) were immediately added to each well of the plate. The final DMSO concentration of each well was 0.5%.
The cells were cultured and treated with the compounds at 37° C., 5% CO2 for 24 h.
20 μL of the supernatant of each well were added to 180 μL of QUANTI-Blue, and the plates were incubated at 37° C. for 1.5 hour. Optical density was measured using a spectrophotometer at 650 nm (OD data). Activivation was calculated by using the equation below: Activivation %=(Compound OD mean value−DMSO OD mean value)/(positive control OD mean value−DMSO OD mean value)×100
The data were analyzed using the GraphPad to get EC50 values and fitting dose response curves of the compounds.

| SMILES | EC50 |
| --- | --- |
| CCCN(CCC)C(=O)C1=Cc2ccc(-c3ccc4c(=O)n(CCn5ccnc5)ccc4c3)cc2N=C(N)C1 [Compound 1-2-37] | < 100 nM |
| CCCN(CCC)C(=O)C1=Cc2ccc(-c3ccc4c(=O)n(CC(C)C)ccc4c3)cc2N=C(N)C1 [Compound 1-2-5] | 100 to 1000 nM |
| CCCN(CCC)C(=O)C1=Cc2ccc(-c3ccc4c(=O)n(Cc5cnccn5)ccc4c3)cc2N=C(N)C1 [Compound 1-2-44] | < 100 nM |
| CCCN(CCC)C(=O)C1=Cc2ccc(-c3ccc4c(=O)n(CCP(=O)(OCC)OCC)ncc4c3)cc2N=C(N)C1 [Compound 1-8-14] | < 100 nM |
| CCCN(CCC)C(=O)C1=Cc2ccc(-c3ccc4ccn(CCO)c(=O)c4c3)cc2N=C(N)C1 [Compound 1-2-51] | 1000 to 10000 nM |
| CCCN(CCC)C(=O)C1=Cc2ccc(-c3ccc4c(=O)n(CC)ccc4c3)cc2N=C(N)C1 [Compound 1-2-3] | 100 to 1000 nM |
| CCCN(CCC)C(=O)C1=Cc2ccc(-c3ccc4c(=O)n(Cc5nc(OC)cc(OC)n5)ccc4c3)cc2N=C(N)C1 [Compound 1-2-46] | < 100 nM |
| CCCN(CCC)C(=O)C1=Cc2ccc(-c3ccc4c(=O)n(CCc5ccccn5)ccc4c3)cc2N=C(N)C1 [Compound 1-2-50] | 100 to 1000 nM |
| CCCN(CCC)C(=O)C1=Cc2ccc(-c3ccc4c(=O)n(CC(=O)NCC)ccc4c3)cc2N=C(N)C1 [Compound 1-2-25] | < 100 nM |
| CCCN(CCC)C(=O)C1=Cc2ccc(-c3cc4c(=O)n(CC)ccc4n3C)cc2N=C(N)C1 [Compound 1-5-1] | 1000 to 10000 nM |
| CCCN(CCC)C(=O)C1=Cc2ccc(-c3ccc4c(=O)n(CC(=O)N5CCCC5)ccc4c3)cc2N=C(N)C1 [Compound 1-2-26] | < 100 nM |
| CCCN(CCC)C(=O)C1=Cc2ccc(-c3ccc4c(=O)n(CC)c(C)cc4c3)cc2N=C(N)C1 [Compound 1-2-2] | 100 to 1000 nM |
| CCCN(CCC)C(=O)C1=Cc2ccc(-c3ccc4c(=O)n(Cc5nccn5C(C)C)ccc4c3)cc2N=C(N)C1 [Compound 1-2-49] | < 100 nM |
| CCCN(CCC)C(=O)C1=Cc2ccc(-c3ccc4c(=O)n(CCO)ccc4c3)cc2N=C(N)C1 [Compound 1-2-6] | < 100 nM |
| CCCN(CCC)C(=O)C1=Cc2ccc(-c3ccc4c(=O)n(CCP(C)(=O)OCC)ccc4c3)cc2N=C(N)C1 (stereo not drawn) [Compound 1-2-11] | < 100 nM |
| CCCN(CCC)C(=O)C1=Cc2ccc(-c3ccc4c(=O)n(CCN(C)C)ccc4c3)cc2N=C(N)C1 [Compound 1-2-12] | 100 to 1000 nM |
| CCCN(CCC)C(=O)C1=Cc2ccc(-c3cc4c(=O)n(CC)ccc4s3)cc2N=C(N)C1 [Compound 1-5-2] | 1000 to 10000 nM |
| CCCN(CCC)C(=O)C1=Cc2ccc(-c3ccc4c(c3)CCN(CC)C4=O)cc2N=C(N)C1 [Compound 1-4-1] | 100 to 1000 nM |
| CCCN(CCC)C(=O)C1=Cc2ccc(-c3ccc4c(c3)CN(CC)C4=O)cc2N=C(N)C1 [Compound 1-3-1] | < 100 nM |
| CCCN(CCC)C(=O)C1=Cc2ccc(-c3ccc4c(=O)n(CCP(C)(=O)OCC)ncc4c3)cc2N=C(N)C1 (stereo not drawn) [Compound 1-8-18] | < 100 nM |
| CCCN(CCC)C(=O)C1=Cc2ccc(-c3ccc4c(=O)n(CCCO)ccc4c3)cc2N=C(N)C1 [Compound 1-2-7] | 100 to 1000 nM |
| CCCCn1ccc2cc(-c3ccc4c(c3)N=C(N)CC(C(=O)N(CCC)CCC)=C4)ccc2c1=O [Compound 1-2-27] | 100 to 1000 nM |
| CCCN(CCC)C(=O)C1=Cc2ccc(-c3ccc4c(=O)n(CC(=O)O)ccc4c3)cc2N=C(N)C1 [Compound 1-2-42] | 1000 to 10000 nM |

Now from value to compound:

| EC50 | SMILES |
| --- | --- |
| < 100 nM | CCCN(CCC)C(=O)C1=Cc2c(F)cc(-c3ccc4c(=O)n(CCS(C)(=O)=O)ncc4c3)cc2N=C(N)C1 [Compound 1-10-2] |
| < 100 nM | CCCN(CCC)C(=O)C1=Cc2ccc(-c3ccc4c(=O)n(CCCS(C)(=O)=O)ncc4c3)cc2N=C(N)C1 [Compound 1-8-6] |
| < 100 nM | CCCN(CCC)C(=O)C1=Cc2ccc(-c3ccc4c(=O)n(CCOC)ncc4c3)cc2N=C(N)C1 [Compound 1-8-9] |
| 100 to 1000 nM | CCCN(CCC)C(=O)C1=Cc2c(cc(-c3ccc4c(=O)n(CCS(C)(=O)=O)ncc4c3)cc2OC)N=C(N)C1 [Compound 2-2-1] |
| < 100 nM | [2H]c1cc(-c2ccc3c(=O)n(Cc4ncccn4)ncc3c2)cc2c1C=C(C(=O)N(CCC)CCC)CC(N)=N2 [Compound 2-3-3] |
| < 100 nM | CCCN(CCC)C(=O)C1=Cc2ccc(-c3ccc4c(=S)n(Cc5cnccn5)ccc4c3)cc2N=C(N)C1 [Compound 1-14-5] |
| 100 to 1000 nM | CCCN(CCC)C(=O)C1=Cc2ccc(-c3ccc4c(n3)CN(CCO)C4=O)cc2N=C(N)C1 [Compound 1-6-2] |
| < 100 nM | CCCN(CCC)C(=O)C1=Cc2c(F)cc(-c3ccc4c(=O)n(CC(=O)NC)ncc4c3)cc2N=C(N)C1 [Compound 1-10-6] |
| < 100 nM | CCCN(CCC)C(=O)C1=Cc2ccc(-c3ccc4c(=S)n(Cc5cnccn5)ncc4c3)cc2N=C(N)C1 [Compound 1-14-6] |
| < 100 nM | CCCN(CCC)C(=O)C1=Cc2ccc(-c3ccc4c(=S)n(CCS(C)(=O)=O)ncc4c3)cc2N=C(N)C1 [Compound 1-14-2] |
| 100 to 1000 nM | CCCN(CCO)C(=O)C1=Cc2ccc(-c3ccc4c(=O)n(CC(N)=O)ccc4c3)cc2N=C(N)C1 [Compound 1-12-1] |
| 100 to 1000 nM | CCCN(CCC)C(=O)C1=Cc2c(F)cc(-c3ccc4c(=O)n(CCS(C)(=O)=O)c(=O)n(C)c4c3)cc2N=C(N)C1 [Compound 1-10-10] |
| < 100 nM | CCCN(CCC)C(=O)C1=Cc2c(F)cc(-c3ccc4c(=O)n(CC(=O)NCC)ccc4c3)cc2N=C(N)C1 [Compound 1-10-7] |
| < 100 nM | CCCN(CCC)C(=O)C1=Cc2ccc(-c3ccc4c(=O)n(CCn5cccn5)ncc4c3)cc2N=C(N)C1 [Compound 1-8-13] |
| 100 to 1000 nM | CCCN(CCC)C(=O)C1=Cc2ccc(-c3ccc4c(=O)n(CC(C)(C)O)c(=O)n(C)c4c3)cc2N=C(N)C1 [Compound 1-9-5] |
| < 100 nM | CCCN(CCC)C(=O)C1=Cc2c(F)cc(-c3ccc4c(=O)n(CC(=O)NC)cnc4c3)cc2N=C(N)C1 [Compound 1-10-8] |
| < 100 nM | CCCN(CCC)C(=O)C1=Cc2c(F)cc(-c3ccc4c(=O)n(CC(=O)NC)ccc4c3)cc2N=C(N)C1 [Compound 1-10-3] |
| 100 to 1000 nM | CCCN(CCC)C(=O)C1=Cc2c(Cl)cc(-c3ccc4c(=O)n(CCS(C)(=O)=O)ncc4c3)cc2N=C(N)C1 [Compound 2-2-3] |
| < 100 nM | CCCN(CCC)C(=O)C1=Cc2ccc(-c3ccc4c(=O)n(CC(=O)NC)cnc4c3)cc2N=C(N)C1 [Compound 1-7-3] |
| 100 to 1000 nM | CCCN(CCC)C(=O)C1=Cc2ccc(-c3ccc4c(=O)n(CC(N)=O)c(=O)n(C)c4c3)cc2N=C(N)C1 [Compound 1-9-3] |
| 100 to 1000 nM | CCCN(CCC)C(=O)C1=Cc2ccc(-c3ccc4c(=O)n(CC(N)=O)cnc4c3)cc2N=C(N)C1 [Compound 1-7-1] |
| 100 to 1000 nM | CCCN(CCC)C(=O)C1=Cc2ccc(-c3cnc4c(c3)CN(CCO)C4=O)cc2N=C(N)C1 [Compound 1-6-1] |
| < 100 nM | CCCN(CCC)C(=O)C1=Cc2c(F)cc(-c3ccc4c(=O)n(CC(=O)NC)c(=O)n(C)c4c3)cc2N=C(N)C1 [Compound 1-10-5] |
| 100 to 1000 nM | CCCN(CCC)C(=O)C1=Cc2ccc(-c3ccc4c(=O)n(Cc5ccccc5)ncc4c3)cc2N=C(N)C1 [Compound 1-8-19] |

Same assay, conditions: HEK-BLUE-hTLR8 cells; bound stated

| EC50 | SMILES |
| --- | --- |
| < 10 nM | CCCN(CCC)C(=O)C1=Cc2ccc(-c3ccc4c(=O)n(CCCS(C)(=O)=O)ncc4c3)cc2N=C(N)C1 [Compound 1-8-6] |
| < 10 nM | CCCN(CCC)C(=O)C1=Cc2ccc(-c3ccc4c(=O)n(CCOC)ncc4c3)cc2N=C(N)C1 [Compound 1-8-9] |
| < 10 nM | [2H]c1cc(-c2ccc3c(=O)n(Cc4ncccn4)ncc3c2)cc2c1C=C(C(=O)N(CCC)CCC)CC(N)=N2 [Compound 2-3-3] |
| < 10 nM | CCCN(CCC)C(=O)C1=Cc2ccc(-c3ccc4c(=S)n(CCS(C)(=O)=O)ncc4c3)cc2N=C(N)C1 [Compound 1-14-2] |
